{"source": "patent US10335400B2", "about": "“Treatment of tauopathies with mGluR5 antagonists” (priority 2014, dated 2019)", "key": {"[1]": {"target": "T1, mGluR5-PP2A complex (Mus musculus, UniProt Q3UVX5)", "T1 construct": "endogenous in cells; host or cells: mouse primary hippocampal neuronal cultures", "T1 sequence (Q3UVX5 19-1203, one chain of several)": "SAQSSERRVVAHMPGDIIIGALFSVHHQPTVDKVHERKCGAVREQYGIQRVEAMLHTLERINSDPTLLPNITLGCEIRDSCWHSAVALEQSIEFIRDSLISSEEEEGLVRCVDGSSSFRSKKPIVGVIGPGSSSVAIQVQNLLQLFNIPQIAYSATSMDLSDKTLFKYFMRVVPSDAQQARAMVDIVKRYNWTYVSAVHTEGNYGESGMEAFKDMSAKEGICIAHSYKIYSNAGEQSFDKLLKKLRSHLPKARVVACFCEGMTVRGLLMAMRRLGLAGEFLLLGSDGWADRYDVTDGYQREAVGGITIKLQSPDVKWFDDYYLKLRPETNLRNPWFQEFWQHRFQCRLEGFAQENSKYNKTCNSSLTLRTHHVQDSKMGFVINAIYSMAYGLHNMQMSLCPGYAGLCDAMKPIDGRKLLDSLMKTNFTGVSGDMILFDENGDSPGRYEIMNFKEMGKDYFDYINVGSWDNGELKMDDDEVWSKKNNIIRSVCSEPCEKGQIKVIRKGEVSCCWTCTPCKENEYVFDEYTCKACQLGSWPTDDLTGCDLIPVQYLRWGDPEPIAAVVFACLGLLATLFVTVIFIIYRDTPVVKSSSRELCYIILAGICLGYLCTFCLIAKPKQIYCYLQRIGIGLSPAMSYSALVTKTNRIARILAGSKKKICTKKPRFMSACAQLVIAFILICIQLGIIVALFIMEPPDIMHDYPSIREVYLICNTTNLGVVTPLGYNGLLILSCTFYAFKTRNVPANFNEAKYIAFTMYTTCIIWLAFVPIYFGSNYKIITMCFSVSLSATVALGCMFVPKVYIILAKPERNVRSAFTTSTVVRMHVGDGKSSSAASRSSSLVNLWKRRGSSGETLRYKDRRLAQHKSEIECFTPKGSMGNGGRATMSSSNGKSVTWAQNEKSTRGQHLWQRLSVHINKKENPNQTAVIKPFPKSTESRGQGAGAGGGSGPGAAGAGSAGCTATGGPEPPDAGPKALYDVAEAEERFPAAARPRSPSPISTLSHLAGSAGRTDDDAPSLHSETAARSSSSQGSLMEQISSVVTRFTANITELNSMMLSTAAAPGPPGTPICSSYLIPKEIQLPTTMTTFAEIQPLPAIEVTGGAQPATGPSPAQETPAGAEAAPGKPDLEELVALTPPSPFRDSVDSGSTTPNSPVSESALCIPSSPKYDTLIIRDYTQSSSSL", "assay": "Coimmunoprecipitation of PP2Ac with mGluR5 in primary neurons", "type": "cell-based", "details": "primary neuronal cultures, 1 mM BMAA", "experimental": "Mouse hippocampal cell proteins were prepared with low-stringency lysis buffer [50 mM Hepes (pH 7.4), 10% (vol/vol) glycerol, 1.5 mM MgCl2, 5 mM NaF, 1 mM Na3VO4, 1 mM EDTA, 1 mM EGTA, 1% Nonidet P-40, 5 mM AEBSF, 10 μg/mL aprotinin, leupeptin, pepstatin] and were homogenized by several freeze-thaw cycles followed by water bath sonication. The homogenate was centrifuged at 14,000×g at 4° C. for 15 min. For transfection experiments with vector (DsRed) and with DsRed-PP2A catalytic subunit (PP2Ac), primary neurons were processed in a similar manner. The supernatants then were used for immunoprecipitation with mouse anti-PP2A (1D6; Millipore) followed by incubation with protein G-Sepharose (Thermo Scientific). The Western blots of immunoprecipitates were probed with rabbit anti-mGluR5 (Millipore) and rabbit anti-PP2Ac [R123d] (FIG. 55)."}, "[2]": {"target": "bovine purified PP2A holoenzyme (Bos taurus, UniProt P67774)", "sequence (Q32PI5 whole entry)": "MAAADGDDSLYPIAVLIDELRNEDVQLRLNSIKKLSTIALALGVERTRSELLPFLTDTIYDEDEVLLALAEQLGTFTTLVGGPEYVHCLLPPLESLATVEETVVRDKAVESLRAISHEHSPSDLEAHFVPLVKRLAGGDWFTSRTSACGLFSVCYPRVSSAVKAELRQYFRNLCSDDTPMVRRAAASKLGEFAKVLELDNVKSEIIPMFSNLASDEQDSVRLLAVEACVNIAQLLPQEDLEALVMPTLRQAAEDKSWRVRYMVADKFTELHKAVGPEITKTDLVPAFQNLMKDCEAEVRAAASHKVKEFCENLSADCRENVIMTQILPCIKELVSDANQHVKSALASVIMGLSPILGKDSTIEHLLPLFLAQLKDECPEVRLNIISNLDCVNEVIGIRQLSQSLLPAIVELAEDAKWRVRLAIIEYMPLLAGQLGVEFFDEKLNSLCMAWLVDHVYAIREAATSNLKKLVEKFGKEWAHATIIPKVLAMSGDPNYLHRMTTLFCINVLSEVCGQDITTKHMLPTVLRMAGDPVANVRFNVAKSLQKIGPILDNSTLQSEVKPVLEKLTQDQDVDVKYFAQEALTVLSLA", "sequence (P67774 whole entry)": "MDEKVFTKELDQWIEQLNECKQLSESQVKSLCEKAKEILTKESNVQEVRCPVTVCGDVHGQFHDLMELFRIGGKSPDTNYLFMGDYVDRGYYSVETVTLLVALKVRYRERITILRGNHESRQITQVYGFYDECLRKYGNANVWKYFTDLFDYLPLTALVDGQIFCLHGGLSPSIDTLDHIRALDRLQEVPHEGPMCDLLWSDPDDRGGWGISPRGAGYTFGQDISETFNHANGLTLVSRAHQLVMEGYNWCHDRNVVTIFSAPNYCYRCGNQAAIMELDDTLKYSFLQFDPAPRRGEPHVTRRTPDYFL", "assay": "In vitro PP2A activity assay with purified PP2A holoenzyme", "type": "biochemical", "details": "purified PP2A holoenzyme in the presence or absence of BMAA", "from_the_text": "No effect of BMAA on PP2A activity was found."}, "[3]": {"tested_on": "PP2Ac", "assay": "PP2A regulatory factors (pTyr307-PP2Ac, demethylated Leu309, I1PP2A, I2PP2A) by Western blots in rat brain slices", "type": "cell-based", "details": "BMAA-treated rat brain slices (1 mM, 2 h)", "experimental": "Male Wistar rats (Charles River Laboratories), 2-3 months old, were anesthetized by i.p. injection with 50 mg/kg Nembutal. The animals were decapitated when deeply anesthetized. The brains were removed immediately and cooled in ice-cold (4° C.) oxygenated artificial cerebrospinal fluid (aCSF) consisting of 126 mM NaCl, 3.5 mM KCl, 1.2 mM NaH2PO4, 1.3 mM MgCl2, 2 mM CaCl2, 11 mM D(+) glucose, and 25 mM NaHCO3 (pH 7.4) for 7-8 min. Each brain then was divided sagittally, and 400-μm-thick coronal slices were made with a Camden Vibraslicer (WP, Inc.). The slices were transferred into a chamber containing the oxygenated aCSF and were incubated at 33° C. for 2 h in the presence or absence of 1 mM, β-N ? methylamino-L-alanine (BMAA) dissolved in 10 mM NaHCO3 (Sigma). The oxygenation of the aCSF was carried out by bubbling the solution with a mixture of 95% O2 and 5% CO2 during the entire procedure. […]\n(§1) Protein was fractionated by 10% SDS/PAGE, transferred to PVDF membrane, and then blocked with 5% skim milk for 1 h at room temperature. […] The protein bands were detected with the enhanced chemiluminescence reagents (Thermo Scientific). Band intensity was measured by Multi-Gauge V3 software (Fuji Photo Film)."}, "[4]": {"tested_on": "PP2A", "assay": "PP2A activity (phosphatase ELISA) in rat brain slices", "type": "cell-based", "details": "brain slices incubated with BMAA 1 mM for 2 h in artificial cerebrospinal fluid", "experimental": "Male Wistar rats (Charles River Laboratories), 2-3 months old, were anesthetized by i.p. injection with 50 mg/kg Nembutal. The animals were decapitated when deeply anesthetized. The brains were removed immediately and cooled in ice-cold (4° C.) oxygenated artificial cerebrospinal fluid (aCSF) consisting of 126 mM NaCl, 3.5 mM KCl, 1.2 mM NaH2PO4, 1.3 mM MgCl2, 2 mM CaCl2, 11 mM D(+) glucose, and 25 mM NaHCO3 (pH 7.4) for 7-8 min. Each brain then was divided sagittally, and 400-μm-thick coronal slices were made with a Camden Vibraslicer (WP, Inc.). The slices were transferred into a chamber containing the oxygenated aCSF and were incubated at 33° C. for 2 h in the presence or absence of 1 mM, β-N ? methylamino-L-alanine (BMAA) dissolved in 10 mM NaHCO3 (Sigma). The oxygenation of the aCSF was carried out by bubbling the solution with a mixture of 95% O2 and 5% CO2 during the entire procedure. At the end of incubation, the brain slices were homogenized with homogenizing buffer [50 mM Tris·HCl (pH 7.4), 8.5% (wt/vol) sucrose, 2 mM EDTA, 2 mM EGTA, 10 mM (3-mercaptoethanol, 5 mM benzamidine, 0.5 mM 4-(2-Aminoethyl) benzenesulfonyl fluoride hydrochloride (AEBSF), 4 μg/mL pepstatin A, and 10 μg/mL each of aprotinin and leupepin] at a ratio of 9.0 mL buffer/1.0 g tissue slices. The homogenates were divided into two parts. One part was centrifuged at 16,000×g for 10 min, and the resulting supernatant was used to assay protein phosphatase 2A (PP2A) activity. Into the other half, an equal volume of phosphatase-inhibitor mixture (20 mM 3-glycerophosphate, 2 mM Na3VO4, and 100 mM NaF) was added immediately, and the samples were used for Western blots."}, "[5]": {"tested_on": "PP2A", "assay": "i.c.v. infusion of BMAA in neonatal rats: PP2Ac Tyr307 phosphorylation and PP2A activity", "type": "in vivo, rat", "details": "i.c.v. BMAA 1.3 μmol", "experimental": "Wistar rats were bred and maintained under standard environmental conditions (12-h light/dark cycles, 22° C.) and were allowed free access to food and water. The animal experiments were carried out in strict compliance with protocols approved by the Animal Welfare Committee of New York State Institute for Basic Research in Developmental Disabilities. On postnatal d 2 (PND2), pups were individually cryo-anesthetized on ice, and 2 μL of 1.3 μmol BMAA in PBS was injected into lateral ventricle using a 10-μL Hamilton syringe (Hamilton Syringe Co.). Control animals were injected with PBS in an identical manner. After infusion of BMAA, rats were killed within 1, 24, 48, 72, or 96 h, and the brains were used for Western blots and PP2A activity assays.\nPP2A activity was assayed with homogenate of rat brain slices using the phosphatase ELISA described previously (5). Briefly, 96-well plates were precoated with a 17-aa phosphopeptide corresponding to tau amino acids 194-207 in which […] was replaced with phosphoserine and to which KKK were added at the C terminus (coating buffer, 35 mM NaHCO3). After overnight blocking with a protein-free blocking solution (Pierce), the enzymatic reaction was performed by adding 2 μg of cell lysate protein in 60 μL of reaction buffer [50 mM TrisHCl (pH 7.0), 2 mM MnCl2, 0.1 mg/mL BSA, 20 mM (β-mercaptoethanol] at 30° C. for 30 min (in the presence or absence of 15 nM of okadaic acid) in a moist chamber. The reaction was stopped by adding 150 μL of Pierce blocking solution containing 50 mM NaF, followed by an overnight incubation with monoclonal antibody Tau-1, which recognizes tau unphosphorylated at Ser^198, Ser^199, and Ser^202. HRP-conjugated secondary antibody treatment was for 60 min at room temperature. Finally 75 μL of 3,3′,5,5′-Tetramethylbenzidine substrate reagent (Sigma) was added, and the colorimetric development was measured using a microtiter plate reader at a wavelength of 650 nm.\nas §1"}}}
{"compound": "CNC[C@H](N)C(=O)O", "note": "[BMAA, β-N-methylamino-L-alanine]", "values": [{"measurement": "association of PP2Ac with mGluR5", "setting": "[1]", "result": "led to the dissociation"}, {"measurement": "direct effect on PP2A activity", "setting": "[2]", "result": "No effect"}, {"measurement": "increase in phosphorylation of PP2Ac at Tyr307", "setting": "[3]", "result": 3.7, "unit": "fold"}, {"measurement": "PP2A activity", "setting": "[4]", "result": "significant inhibition"}, {"measurement": "PP2A activity in rat brain", "setting": "[5]", "result": "decreased"}, {"measurement": "time at which the decrease in PP2A activity was most significant", "setting": "[5]", "result": 48, "unit": "h"}, {"measurement": "time by which pTyr307-PP2Ac decreased to a normal level", "setting": "[5]", "result": "72-96 h"}, {"measurement": "level of phosphorylation of PP2Ac at Tyr307 in rat brains", "setting": "[5]; for 24-48 h", "result": "increased markedly"}]}
